From patent US20260076902A1, “LIQUID, STORAGE STABLE, DIRECTLY INJECTABLE, PANTOPRAZOLE FORMULATIONS, THEIR USES AND MANUFACTURING” (Etico Lifesciences Private Limited, priority 2024, published 2026) come the findings set out here.

The data set in a line: Dilution with 0.9% sodium chloride solution, precipitation. The settings on record: alpha tocopherol tested as stabilizer. It counts as physicochemical.

With `Cc1c(C)c2c(c(C)c1O)CC[C@@](C)(CCC[C@H](C)CCC[C@H](C)CCCC(C)C)O2` [Alpha tocopherol], the “behaviour upon dilution with 0.9% sodium chloride solution” value is recorded as “precipitation was formed”.
